Data reported in ChEMBL document CHEMBL4354818, “Advances in Discovering Deubiquitinating Enzyme (DUB) Inhibitors” (J Med Chem, 2020).

Key:
[1] = Inhibition of 26S proteasome (unknown origin) incubated for 2 hrs by proteasome Ub-Rho cleavage assay; design: species or system Homo sapiens
HCT-116 = assay: Cytotoxicity in human HCT116 cells assessed as reduction in cell viability incubated for 72 hrs by FMCA analysis; assay type: functional, cell-based; details: HCT-116, 72 h
STAM-binding protein = target: T1, STAM-binding protein (Homo sapiens, UniProt O95630); assay: Inhibition of human STAMBP expressed in Sf21 cells pre-incubated for 20 mins before Ubiquitinated NALP7 substrate addition and measured after 1 hr by immunoblotting analysis
T1 sequence (O95630 whole entry): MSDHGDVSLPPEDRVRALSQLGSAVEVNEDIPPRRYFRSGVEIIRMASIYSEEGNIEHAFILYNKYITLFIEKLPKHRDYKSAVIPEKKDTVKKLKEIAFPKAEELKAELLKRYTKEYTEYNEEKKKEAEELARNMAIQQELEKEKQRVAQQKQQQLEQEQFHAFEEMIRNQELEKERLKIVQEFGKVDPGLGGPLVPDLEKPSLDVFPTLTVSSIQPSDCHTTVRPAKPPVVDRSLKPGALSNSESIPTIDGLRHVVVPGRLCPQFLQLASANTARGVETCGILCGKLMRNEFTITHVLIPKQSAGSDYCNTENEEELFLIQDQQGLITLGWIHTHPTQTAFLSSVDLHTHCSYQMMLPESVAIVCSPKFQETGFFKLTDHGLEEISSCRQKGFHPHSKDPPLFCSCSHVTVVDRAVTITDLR

[2] = target: Ubiquitin carboxyl-terminal hydrolase 7 (Homo sapiens, UniProt Q93009); assay: Inhibition of USP7 in human U2OS using Ub-TAMRA substrate by Ub-Rhodamine fluorescent intensity assay; assay type: cell-based
[3] = target: T2, Ubiquitin carboxyl-terminal hydrolase 4 (Homo sapiens, UniProt Q13107); assay: Inhibition of USP4 in human U2OS using Ub-TAMRA substrate by Ub-Rhodamine fluorescent intensity assay; assay type: cell-based
T2 sequence (Q13107 whole entry): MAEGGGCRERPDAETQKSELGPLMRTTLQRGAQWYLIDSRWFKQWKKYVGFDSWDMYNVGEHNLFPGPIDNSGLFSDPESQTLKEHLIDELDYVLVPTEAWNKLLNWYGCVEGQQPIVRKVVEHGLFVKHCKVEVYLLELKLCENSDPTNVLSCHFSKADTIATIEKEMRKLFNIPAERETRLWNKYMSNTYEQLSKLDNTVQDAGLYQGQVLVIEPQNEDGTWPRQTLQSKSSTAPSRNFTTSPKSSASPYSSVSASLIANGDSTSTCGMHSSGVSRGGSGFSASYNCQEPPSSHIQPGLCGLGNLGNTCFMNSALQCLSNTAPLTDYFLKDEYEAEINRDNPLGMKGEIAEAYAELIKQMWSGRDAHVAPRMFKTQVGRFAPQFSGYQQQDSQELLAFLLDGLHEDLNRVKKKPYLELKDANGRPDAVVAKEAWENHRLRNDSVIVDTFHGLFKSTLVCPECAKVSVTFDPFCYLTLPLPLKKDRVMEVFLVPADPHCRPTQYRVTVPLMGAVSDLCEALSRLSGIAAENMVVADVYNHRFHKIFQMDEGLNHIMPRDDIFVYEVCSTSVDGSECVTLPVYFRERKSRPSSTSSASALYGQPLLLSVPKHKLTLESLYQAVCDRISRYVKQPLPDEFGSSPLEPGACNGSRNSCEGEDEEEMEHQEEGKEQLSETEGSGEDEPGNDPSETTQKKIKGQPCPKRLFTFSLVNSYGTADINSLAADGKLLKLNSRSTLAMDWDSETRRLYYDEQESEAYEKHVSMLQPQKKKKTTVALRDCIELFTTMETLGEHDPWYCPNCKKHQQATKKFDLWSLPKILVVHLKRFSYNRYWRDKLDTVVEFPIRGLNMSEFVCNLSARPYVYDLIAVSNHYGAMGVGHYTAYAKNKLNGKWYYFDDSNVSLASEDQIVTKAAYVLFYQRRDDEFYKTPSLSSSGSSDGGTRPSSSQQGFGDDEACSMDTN

Chain of Ubiquitin carboxyl-terminal hydrolase 7 (Q93009 whole entry): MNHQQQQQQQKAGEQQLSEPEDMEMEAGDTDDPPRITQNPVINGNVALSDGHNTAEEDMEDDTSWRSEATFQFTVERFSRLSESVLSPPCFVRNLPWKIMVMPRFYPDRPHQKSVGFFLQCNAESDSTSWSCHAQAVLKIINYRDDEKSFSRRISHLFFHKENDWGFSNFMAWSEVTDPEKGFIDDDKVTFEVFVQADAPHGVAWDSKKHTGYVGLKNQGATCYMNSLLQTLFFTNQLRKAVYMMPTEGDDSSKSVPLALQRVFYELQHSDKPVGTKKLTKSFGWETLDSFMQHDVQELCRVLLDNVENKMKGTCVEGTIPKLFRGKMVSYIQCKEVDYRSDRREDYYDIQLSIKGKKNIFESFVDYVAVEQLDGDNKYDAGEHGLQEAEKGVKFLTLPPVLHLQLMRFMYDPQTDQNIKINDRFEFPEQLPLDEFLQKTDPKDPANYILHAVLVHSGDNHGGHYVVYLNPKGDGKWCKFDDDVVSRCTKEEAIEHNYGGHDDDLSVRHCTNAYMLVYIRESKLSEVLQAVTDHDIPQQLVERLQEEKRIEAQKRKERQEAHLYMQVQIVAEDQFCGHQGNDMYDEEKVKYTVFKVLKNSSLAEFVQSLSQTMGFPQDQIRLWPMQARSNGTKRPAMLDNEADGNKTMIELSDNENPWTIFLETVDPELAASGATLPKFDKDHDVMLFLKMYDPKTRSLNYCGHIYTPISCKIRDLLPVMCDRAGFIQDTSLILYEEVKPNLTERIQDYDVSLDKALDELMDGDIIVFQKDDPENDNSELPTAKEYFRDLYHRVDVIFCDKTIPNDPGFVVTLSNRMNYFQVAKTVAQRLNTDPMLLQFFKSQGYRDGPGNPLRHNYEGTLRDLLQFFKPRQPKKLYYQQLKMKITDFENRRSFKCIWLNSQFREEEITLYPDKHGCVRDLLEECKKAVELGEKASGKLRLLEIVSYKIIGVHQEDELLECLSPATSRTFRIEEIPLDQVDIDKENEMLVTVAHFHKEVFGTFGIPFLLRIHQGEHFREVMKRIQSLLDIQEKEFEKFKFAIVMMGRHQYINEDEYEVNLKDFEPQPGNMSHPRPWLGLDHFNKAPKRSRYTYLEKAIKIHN

Row | IC50 (STAM-binding protein) [µM] | IC50 [2] [µM] | IC50 [3] [µM] | Compound | EC50 [1] [µM] | EC50 (HCT-116) [µM]
1 |  |  |  | C=CC(=O)N1C/C(=C\c2ccc([N+](=O)[O-])cc2)C(=O)/C(=C/c2ccc([N+](=O)[O-])cc2)C1 | 6.5 | 1.05
2 |  |  |  | C=CC(=O)N1CC/C(=C\c2ccc(F)c([N+](=O)[O-])c2)C(=O)/C(=C/c2ccc(F)c([N+](=O)[O-])c2)C1 | 6.4 | 0.58
3 | 0.33 |  |  | O=C(CSc1nc2ccc(N3CCOCC3)cc2c(=O)n1CCc1ccccc1)NCc1ccco1 |  | 
4 |  | 44 | 0.05 | C#Cc1ccc(CNC(=O)c2cc(C(=O)CCl)cn2C)cc1 |  | 
